{
  "source": "paper PMC4904246",
  "about": "(Journal of Medicinal Chemistry, 2016)",
  "key": {"[1]": {"experiment": "plasma protein binding by ultracentrifugation, human plasma", "format": "in vitro ADME"}, "[2]": {"experiment": "kinetic aqueous solubility by nephelometry", "format": "physicochemical", "conditions": "pH 6.5, range following 30 min at room temperature"}, "[3]": {"experiment": "plasma protein binding by ultracentrifugation, rat plasma", "format": "in vitro ADME"}, "[4]": {"experiment": "in vitro metabolism, mouse liver microsomes", "format": "in vitro ADME"}, "[5]": {"experiment": "in vitro metabolism, human liver microsomes", "format": "in vitro ADME"}, "in vivo": {"experiment": "in vivo", "conditions": "Sprague-Dawley, rat, plasma, iv"}, "[6]": {"experiment": "in vitro metabolism, rat liver microsomes", "format": "in vitro ADME", "conditions": "from rat microsomal CLint using physiological scaling factors"}, "dog DHODH": {"biological_target": "dog DHODH (Canis lupus familiaris, UniProt A0A8I3MWX2)", "sequence (A0A8I3MWX2 1-406)": "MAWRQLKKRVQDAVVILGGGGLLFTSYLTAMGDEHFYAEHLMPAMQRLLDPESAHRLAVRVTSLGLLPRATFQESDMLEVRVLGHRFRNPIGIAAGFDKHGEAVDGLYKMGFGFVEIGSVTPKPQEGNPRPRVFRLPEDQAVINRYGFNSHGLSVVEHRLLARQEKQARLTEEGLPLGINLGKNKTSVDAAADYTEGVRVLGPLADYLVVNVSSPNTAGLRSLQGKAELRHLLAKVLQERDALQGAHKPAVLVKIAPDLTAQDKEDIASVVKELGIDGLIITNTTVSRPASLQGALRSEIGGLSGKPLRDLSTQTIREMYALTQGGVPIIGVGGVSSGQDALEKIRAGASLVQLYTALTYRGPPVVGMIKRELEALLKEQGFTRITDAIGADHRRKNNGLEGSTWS", "experiment": "biochemical"}, "[7]": {"experiment": "plasma protein binding by ultracentrifugation, mouse plasma", "format": "in vitro ADME", "conditions": "mouse plasma, ultracentrifugation"}, "PvDHODH": {"biological_target": "T1, PvDHODH (Plasmodium vivax, UniProt A5K1N1)", "T1 sequence (A5K1N1 160-572)": "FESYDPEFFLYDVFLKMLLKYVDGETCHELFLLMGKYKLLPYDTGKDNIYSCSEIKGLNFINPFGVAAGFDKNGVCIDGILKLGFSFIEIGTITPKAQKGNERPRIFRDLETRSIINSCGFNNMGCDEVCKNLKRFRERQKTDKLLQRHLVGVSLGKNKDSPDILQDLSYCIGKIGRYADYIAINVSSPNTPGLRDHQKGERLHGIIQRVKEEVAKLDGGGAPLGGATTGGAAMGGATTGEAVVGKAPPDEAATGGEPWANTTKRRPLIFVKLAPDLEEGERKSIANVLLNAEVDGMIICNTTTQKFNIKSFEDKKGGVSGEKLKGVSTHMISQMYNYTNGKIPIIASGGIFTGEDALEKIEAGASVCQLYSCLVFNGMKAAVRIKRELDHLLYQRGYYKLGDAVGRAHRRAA", "conditions": "PvDHODH IC50 higher than PfDHODH IC50"}, "hERG K+ channel": {"biological_target": "hERG K+ channel (Homo sapiens, UniProt Q12809)", "sequence (Q12809 whole entry)": "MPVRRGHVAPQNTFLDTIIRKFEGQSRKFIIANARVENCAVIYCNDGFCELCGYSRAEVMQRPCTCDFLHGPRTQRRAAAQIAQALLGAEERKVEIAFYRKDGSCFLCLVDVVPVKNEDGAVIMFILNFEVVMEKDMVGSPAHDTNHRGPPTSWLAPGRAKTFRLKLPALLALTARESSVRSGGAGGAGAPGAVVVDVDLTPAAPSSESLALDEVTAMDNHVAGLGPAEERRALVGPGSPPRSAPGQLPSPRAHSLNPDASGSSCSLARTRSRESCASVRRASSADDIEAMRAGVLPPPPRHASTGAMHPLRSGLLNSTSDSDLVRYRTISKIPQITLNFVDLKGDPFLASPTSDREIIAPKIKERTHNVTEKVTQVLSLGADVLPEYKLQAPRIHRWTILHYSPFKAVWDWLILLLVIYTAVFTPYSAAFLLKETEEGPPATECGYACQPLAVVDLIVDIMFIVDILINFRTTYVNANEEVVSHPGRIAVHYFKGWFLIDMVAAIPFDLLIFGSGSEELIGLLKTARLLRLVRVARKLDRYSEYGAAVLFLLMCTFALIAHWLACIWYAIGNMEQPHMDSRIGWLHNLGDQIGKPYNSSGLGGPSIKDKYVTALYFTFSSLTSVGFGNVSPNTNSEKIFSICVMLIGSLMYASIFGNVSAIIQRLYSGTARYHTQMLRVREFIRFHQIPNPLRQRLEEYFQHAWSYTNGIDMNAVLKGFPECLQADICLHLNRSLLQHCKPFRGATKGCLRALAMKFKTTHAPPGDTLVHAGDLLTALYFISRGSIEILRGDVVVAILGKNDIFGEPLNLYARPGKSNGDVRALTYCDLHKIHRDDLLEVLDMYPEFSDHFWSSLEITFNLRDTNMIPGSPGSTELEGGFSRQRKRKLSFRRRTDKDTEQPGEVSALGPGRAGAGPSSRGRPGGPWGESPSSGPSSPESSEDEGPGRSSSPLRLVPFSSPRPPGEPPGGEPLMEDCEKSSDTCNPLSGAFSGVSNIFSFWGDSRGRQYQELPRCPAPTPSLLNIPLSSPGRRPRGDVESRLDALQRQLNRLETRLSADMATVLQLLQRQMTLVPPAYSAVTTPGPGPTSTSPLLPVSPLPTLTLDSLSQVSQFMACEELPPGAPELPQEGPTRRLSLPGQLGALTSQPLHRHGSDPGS", "conditions": "human, plasma"}, "[8]": {"conditions": "fed state simulated intestinal fluid, pH 5.8 (footnote c); cited from earlier work"}, "[9]": {"conditions": "scaled; cited from earlier work"}, "[10]": {"conditions": "mouse plasma; cited from earlier work"}, "[11]": {"conditions": "rat plasma; cited from earlier work"}, "[12]": {"conditions": "scaled; cited from earlier work", "remark": "listed apart in the source"}, "[13]": {"conditions": "cited from earlier work"}, "[14]": {"conditions": "plasma; cited from earlier work"}, "[15]": {"conditions": "cited from earlier work", "remark": "listed apart in the source"}, "[16]": {"tested_on": "P. falciparum Pf3D7_0087/N9 parasites", "conditions": "cited from earlier work"}, "[17]": {"conditions": "1 QD, converted to different units"}},
  "note": "Where two headings read alike, the source gives them in different places.",
  "data": [
    {"smiles": "Cc1cc(NC2CCc3cc(Br)ccc3C2)n2nc(C(C)(F)F)nc2n1", "note": "(centres unmarked) [Compound 11, 2-(1,1-Difluoroethyl)-N-(6-bromo-1,2,3,4-tetrahydronaphthalen-2-yl)-5-methyl-[1,2,4]triazolo[1,5-a]pyrimidin-7-amine]", "values": [
      {"measurement": "PPB human (% bound)", "setting": "[1]", "value": 99.0, "unit": "% bound"},
      {"measurement": "kinetic solubility pH 6.5", "setting": "[2]", "value": "3.1–6.3 μg/mL"},
      {"measurement": "PPB rat (% bound)", "setting": "[3]", "value": 99.7, "unit": "% bound"},
      {"measurement": "predicted in vivo CLint mouse", "setting": "[4]; from mouse microsomal CLint using physiological scaling factors", "value": 67, "unit": "mL/min/kg"},
      {"measurement": "in vitro CLint mouse", "setting": "[4]; mouse liver microsomes", "value": 26, "unit": "μL/min/mg protein"},
      {"measurement": "predicted in vivo CLint human", "setting": "[5]; from human microsomal CLint using physiological scaling factors", "value": "< 5.8", "unit": "mL/min/kg"},
      {"measurement": "in vitro CLint human", "setting": "[5]; human liver microsomes", "value": "< 7", "unit": "μL/min/mg protein"},
      {"measurement": "clearance", "setting": "in vivo", "value": 2.8, "unit": "mL/min/kg"},
      {"measurement": "predicted in vivo CLint rat", "setting": "[6]", "value": 19, "unit": "mL/min/kg"},
      {"measurement": "IC50", "setting": "dog DHODH", "value": "> 100", "unit": "µM"},
      {"measurement": "PPB mouse (% bound)", "setting": "[7]", "value": 99.2, "unit": "% bound"},
      {"measurement": "difference of IC50 P. vivax DHODH versus PfDHODH", "setting": "PvDHODH", "value": "5–8 fold"}
    ]},
    {"smiles": "Cc1cc(Nc2ccc(S(F)(F)(F)(F)F)cc2)n2nc(C(C)(F)F)nc2n1", "note": "[Compound 1, 2-(1,1-difluoroethyl)-5-methyl-N-[4-(pentafluoro-λ^6-sulfanyl)phenyl]-[1,2,4]triazolo[1,5-a]pyrimidin-7-amine]", "values": [
      {"measurement": "unbound plasma concentration at likely therapeutic doses lower than the IC50 for hERG channel inhibition", "setting": "hERG K+ channel", "value": "70–320 fold"},
      {"measurement": "solubility FeSSIF pH 5.8", "setting": "[8]", "value": "27.6 ^c μg/mL"},
      {"measurement": "predicted in vivo CLint mouse", "setting": "[9]", "value": 7.2, "unit": "mL/min/kg"},
      {"measurement": "PPB mouse (% bound)", "setting": "[10]", "value": 99.7, "unit": "% bound"},
      {"measurement": "PPB rat (% bound)", "setting": "[11]", "value": 97.7, "unit": "% bound"},
      {"measurement": "predicted in vivo CLint human", "setting": "[12]", "value": 3.5, "unit": "mL/min/kg"},
      {"measurement": "apparent T1/2", "setting": "[13]; rat IV […], […]", "value": 13, "unit": "h"},
      {"measurement": "oral BA", "setting": "[13]; rat", "value": 57, "unit": "%"},
      {"measurement": "PPB human (% bound)", "setting": "[14]", "value": 99.9, "unit": "% bound"},
      {"measurement": "in vitro CLint rat", "setting": "[15]; rat liver microsomes", "value": 1.8, "unit": "μL/min/mg protein"},
      {"measurement": "predicted in vivo CLint rat", "setting": "[15]; rat, scaled", "value": 3.1, "unit": "mL/min/kg"},
      {"measurement": "ED90", "setting": "[16]; 1, QD dosing", "value": 8.1, "unit": "mg/kg"},
      {"measurement": "AUCED90", "setting": "[16]; [17]", "value": 45.7, "unit": "μM·h/day"},
      {"measurement": "ED90", "setting": "[16]; [17]", "value": 8.1, "unit": "mg/kg/day"}
    ]}
  ]
}
